Here are results for two compounds from EP4410314A1, “COMBINATION THERAPY COMPRISING ANTI-CD22 ANTIBODY-DRUG CONJUGATE AND IRAK1 INHIBITOR” (ADC Therapeutics SA, priority 2023, dated 2024).

One assay deals with CD22. In words: CD22 cell surface expression after chidamide treatment, flow cytometry. In kind it is cell-based. The following applies: chidamide 0.25 or 0.5 µM for 7 days; Ramos, TMD8, and SU-DHL-4 cell lines. The procedure:
Chidamide (Selleckchem) was dissolved in dimethyl sulfoxide (DMSO) according to the manufacturer's instructions. Cells were treated with chidamide (0.25 or 0.5 µM) for 7 days at 37°C in a 5% carbon dioxide-gassed, humidified incubator. On day 3, cells were centrifuged, and fresh medium containing the corresponding concentrations of chidamide was added. The control group was treated with equal volumes of DMSO.
CD22 cell surface expression after chidamide treatment was measured by flow cytometry. hLL2-C220 and B12 antibodies, followed by Alexa Fluor 488 anti-human secondary antibodies (Life Technologies, Thermo Fisher Scientific) or allophycocyanin anti-human secondary antibodies (BioLegend), were used for CD22 detection. Cells were analyzed using a CytoFLEX Flow Cytometer (Beckman Coulter), and data were analyzed with FlowJo software version 10.8.1 (BD Biosciences).

For the next assay, the system named is Daudi. In words: In vitro cytotoxicity, Daudi. It is filed as cell-based, human. The conditions noted are these: Daudi (BL), CD22-positive; mean ± SEM.
In the next assay the test system is NAMALWA. Put plainly: In vitro cytotoxicity, NAMALWA. It is filed as cell-based, human. The following applies: NAMALWA (BL), CD22-positive; mean ± SEM.
A further assay deals with Ramos. Put plainly: In vitro cytotoxicity, Ramos. In kind it is cell-based, human. The following applies: Ramos (BL), CD22-positive; mean ± SEM.
Another assay relates to DO HH-2. Put plainly: In vitro cytotoxicity, DO HH-2. The conditions noted are these: DO HH-2 (FL), CD22-positive; mean ± SEM. It is filed as cell-based, human.
For another assay, the system named is GRANTA-519. In words: In vitro cytotoxicity, GRANTA-519. The conditions noted are these: GRANTA-519 (MCL), CD22-positive; mean ± SEM. It is filed as cell-based, human.
The subject of a further assay is MEC-2. In words: In vitro cytotoxicity, MEC-2. The conditions noted are these: MEC-2 (CLL), CD22-positive; mean ± SEM. In kind it is cell-based, human.
The next assay deals with NALM-6. Put plainly: In vitro cytotoxicity, NALM-6. It is filed as cell-based, human. The conditions noted are these: NALM-6 (B-ALL), CD22-positive; mean ± SEM.
The test system of the next assay is REH. In words: In vitro cytotoxicity, REH. The conditions noted are these: REH (B-ALL), CD22-positive; mean ± SEM. In kind it is cell-based, human.
Another assay concerns SEM cells. In words: In vitro cytotoxicity, SEM. In kind it is cell-based, human. The following applies: SEM (B-ALL), CD22-positive; mean ± SEM.
In the next assay the test system is KM-H2. Put plainly: In vitro cytotoxicity, KM-H2. It is filed as cell-based, human. The conditions noted are these: KM-H2 (HL), CD22-negative; mean ± SEM.
For another assay, the system named is SUP-T1. In words: In vitro cytotoxicity, SUP-T1. It is filed as cell-based, human. The conditions noted are these: SUP-T1 (T-LL), CD22-negative; mean ± SEM.
Assay [1] deals with KARPAS-299. In words: In vitro cytotoxicity, KARPAS-299. In kind it is cell-based, human. The conditions noted are these: KARPAS-299 (ALCL), CD22-negative; mean ± SEM.
The next assay has as its system Ramos cells. In words: DNA interstrand crosslinks, single cell gel electrophoresis (Comet) assay, Ramos. In kind it is cell-based, human. The method, then: (§1) Quantification of in vitro DNA interstrand crosslinks (ICLs) was performed using the single cell gel electrophoresis (Comet) assay.
(§2) DNA ICLs were measured using a modification of the single-cell gel electrophoresis (Comet) assay, and crosslinking was expressed as the percentage decrease in Olive tail moment (OTM) versus control irradiated cells. […] Immediately after the drug incubation period, a low level of ICLs (3%) was observed, which increased over time to near peak levels (≈50%) at 12 hours and persisted up to 48 hours. […] In this cell line, SG3199 produced a high level of ICL (≈50%), similar to that observed in the Ramos cell line.

Assay [2] relates to KARPAS-299. Put plainly: DNA interstrand crosslinks, single cell gel electrophoresis (Comet) assay, KARPAS-299. In kind it is cell-based, human. The conditions noted are these: KARPAS-299 (CD22-negative), over 48 hours following a 2-hour treatment. The method, then: as §1, §2

The structures appear in SMILES notation.

`Nc1cc(F)ccc1NC(=O)c1ccc(CNC(=O)/C=C/c2cccnc2)cc1` [chidamide]: the “increase of CD22 expression compared with DMSO-treated cells (MFI fold change)” value in the assay on CD22 is “up to 2.4 times”.

Turning to `COc1cc2c(cc1OCCCCCOc1cc3c(cc1OC)C(=O)N1C=C(C)C[C@H]1C=N3)N=C[C@@H]1CC(C)=CN1C2=O` [SG3199], the IC50 was found to be 0.008 ± 0.001 nM with Daudi; 0.014 ± 0.001 nM with NAMALWA; 0.016 ± 0.001 nM in the assay with Ramos; 0.007 ± 0.001 nM in the assay on DO HH-2; 0.002 nM in the assay with GRANTA-519; 0.033 ± 0.009 nM with MEC-2. The half-maximal inhibitory concentration (IC50) in the assay on NALM-6 is 0.002 nM; in the assay on REH, 0.001 nM; with SEM cells, 0.005 ± 0.002 nM; in the assay with KM-H2, 0.036 ± 0.005 nM; in the assay with SUP-T1, 0.026 ± 0.005 nM; in the assay on KARPAS-299 [1], 0.025 ± 0.001 nM. Further, the “DNA ICLs, percentage decrease in Olive tail moment (OTM) versus control irradiated cells” value was 46% in the assay with Ramos cells (2-hour exposure, immediately after the drug incubation period); 56% with Ramos cells (after 2 hours following drug incubation); “≈ 50%” with KARPAS-299 [2]. The “persistence of DNA ICLs” value in the assay with Ramos cells (following 2-hour exposure) is reported as “up to 48 hours”.
